The target of assay [1] is T1, wild type LRRK2 overexpressed in recombinant HEK-293T cells (Homo sapiens, UniProt Q5S007).
T1 construct: host or cells: HEK293T (transient transfection with pCMV-LRRK2 WT plasmid)
Kind of assay: pS935 LRRK2 Cell Assay (HTRF, phospho-LRRK2 Ser935). The settings on record: LRRK2 Inhibition, Table 8, 2 hours compound incubation. Type of assay: cell-based. Put shortly: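 HEK-293T cells transiently transfected with wild-type LRRK2 for 24 h, plated overnight, then treated 2 h at 37° C with compound (top 10 μM, 3-fold, 9 doses, duplicates, 0.2% DMSO). Lysates probed overnight at 23° C by sandwich HTRF for pSer935; 665/615 nm ratio read.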
A general note: Time-resolved FRET reads energy transfer from a long-lived donor to a nearby acceptor.

Another assay has as its target LRRK2 wild type enzyme (Homo sapiens, UniProt Q5S007). Put plainly: Biochemical Assay: LRRK2 TR-FRET (LanthaScreen) kinase assay with LRRKtide substrate. The settings on record: LRRK2 Inhibition, Table 8. The method in brief: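 Human wild-type LRRK2 (3 nM) preincubated 15 min with compound (11-point, 3-fold, top 10 μM), then reacted 120 min at 23 °C with 400 nM LRRKtide and 25 μM ATP, pH 8.0. Stopped with EDTA; Tb-anti-pLRRKtide TR-FRET read after 30 min.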

T1 sequence (Q5S007 whole entry): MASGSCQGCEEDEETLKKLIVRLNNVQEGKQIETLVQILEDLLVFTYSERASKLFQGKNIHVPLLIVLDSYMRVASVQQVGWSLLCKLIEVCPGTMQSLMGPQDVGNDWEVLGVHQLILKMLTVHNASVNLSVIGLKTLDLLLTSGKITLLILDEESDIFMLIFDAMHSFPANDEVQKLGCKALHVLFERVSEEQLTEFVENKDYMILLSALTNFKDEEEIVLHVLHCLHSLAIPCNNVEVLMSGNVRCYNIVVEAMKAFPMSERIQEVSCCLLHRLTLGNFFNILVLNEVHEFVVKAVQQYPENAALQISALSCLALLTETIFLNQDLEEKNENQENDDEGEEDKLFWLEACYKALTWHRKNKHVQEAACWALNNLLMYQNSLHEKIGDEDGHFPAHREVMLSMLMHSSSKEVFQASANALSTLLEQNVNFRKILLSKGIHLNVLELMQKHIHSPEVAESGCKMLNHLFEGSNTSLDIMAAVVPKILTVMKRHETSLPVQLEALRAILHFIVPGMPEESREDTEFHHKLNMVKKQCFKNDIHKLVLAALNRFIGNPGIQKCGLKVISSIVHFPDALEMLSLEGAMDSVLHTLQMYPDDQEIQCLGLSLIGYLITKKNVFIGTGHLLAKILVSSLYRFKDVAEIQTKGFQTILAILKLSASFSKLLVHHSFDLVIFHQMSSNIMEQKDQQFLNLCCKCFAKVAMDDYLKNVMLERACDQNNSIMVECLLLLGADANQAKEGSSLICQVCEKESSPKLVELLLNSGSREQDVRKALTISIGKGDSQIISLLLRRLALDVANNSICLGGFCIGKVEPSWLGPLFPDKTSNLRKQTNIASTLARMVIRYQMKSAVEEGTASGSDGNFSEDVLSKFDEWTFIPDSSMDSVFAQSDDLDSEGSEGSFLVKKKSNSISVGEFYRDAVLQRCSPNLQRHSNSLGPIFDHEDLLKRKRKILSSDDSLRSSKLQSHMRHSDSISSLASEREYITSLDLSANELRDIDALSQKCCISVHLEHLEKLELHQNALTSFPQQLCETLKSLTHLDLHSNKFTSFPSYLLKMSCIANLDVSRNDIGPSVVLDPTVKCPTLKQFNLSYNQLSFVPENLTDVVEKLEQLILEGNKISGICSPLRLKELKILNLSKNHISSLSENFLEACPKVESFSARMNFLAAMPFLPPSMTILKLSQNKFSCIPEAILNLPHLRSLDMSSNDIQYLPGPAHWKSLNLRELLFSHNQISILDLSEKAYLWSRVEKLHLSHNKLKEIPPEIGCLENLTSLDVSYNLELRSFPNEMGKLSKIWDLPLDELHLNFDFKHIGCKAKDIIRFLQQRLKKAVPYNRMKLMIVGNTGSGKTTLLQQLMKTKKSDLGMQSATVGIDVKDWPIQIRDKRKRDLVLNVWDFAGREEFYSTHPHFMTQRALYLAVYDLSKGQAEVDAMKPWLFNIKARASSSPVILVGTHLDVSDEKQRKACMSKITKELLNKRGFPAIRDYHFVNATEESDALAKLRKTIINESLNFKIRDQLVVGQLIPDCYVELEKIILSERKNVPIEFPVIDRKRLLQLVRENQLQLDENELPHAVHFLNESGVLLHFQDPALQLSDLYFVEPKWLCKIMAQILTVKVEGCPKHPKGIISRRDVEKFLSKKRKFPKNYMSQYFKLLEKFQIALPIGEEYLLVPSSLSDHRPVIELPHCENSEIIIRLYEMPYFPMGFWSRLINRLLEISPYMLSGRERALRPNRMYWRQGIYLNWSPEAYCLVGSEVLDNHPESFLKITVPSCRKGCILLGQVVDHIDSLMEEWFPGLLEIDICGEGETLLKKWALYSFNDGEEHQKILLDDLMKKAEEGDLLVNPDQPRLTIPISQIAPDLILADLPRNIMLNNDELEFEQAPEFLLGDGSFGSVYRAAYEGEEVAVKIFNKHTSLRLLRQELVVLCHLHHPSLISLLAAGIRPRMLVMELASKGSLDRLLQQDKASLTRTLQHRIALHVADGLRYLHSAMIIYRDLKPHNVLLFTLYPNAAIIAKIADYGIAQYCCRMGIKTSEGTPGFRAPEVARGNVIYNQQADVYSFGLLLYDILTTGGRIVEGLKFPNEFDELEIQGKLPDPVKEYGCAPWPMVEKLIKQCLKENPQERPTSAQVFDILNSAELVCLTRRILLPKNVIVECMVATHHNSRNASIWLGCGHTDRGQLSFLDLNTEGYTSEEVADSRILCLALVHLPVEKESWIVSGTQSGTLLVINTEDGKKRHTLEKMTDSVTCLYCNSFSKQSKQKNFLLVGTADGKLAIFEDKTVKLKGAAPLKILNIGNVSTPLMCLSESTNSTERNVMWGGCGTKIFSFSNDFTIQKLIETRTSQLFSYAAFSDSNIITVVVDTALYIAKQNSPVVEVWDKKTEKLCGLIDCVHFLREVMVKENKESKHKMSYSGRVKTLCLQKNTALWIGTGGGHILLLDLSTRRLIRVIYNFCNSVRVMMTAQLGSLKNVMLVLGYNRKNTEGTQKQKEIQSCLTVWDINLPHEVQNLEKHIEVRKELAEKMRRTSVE
Chain of LRRK2 wild type enzyme (Q5S007 whole entry): as above

For orientation: IC50 means the concentration needed to halve the response being measured. In the case of `C[C@@H]1C[C@H](n2c(CC(=O)NC[C@H]3CCCO3)nc3cnc4ccc(C#N)cc4c32)CCO1` [Compound 153, 2-{8-cyano-1-[(2R,4R)-2-methyloxan-4-yl]-1H-imidazo[4,5-c]quinolin-2-yl}-N-{[(2R)-oxolan-2-yl]methyl} acetamide], the 50% inhibitory concentration (IC50) in assay [1] was found to be 21.3 nM; against LRRK2 wild type enzyme, 0.514 nM.

As to `Cc1ncnc(C)c1NC(=O)Cc1nc2cnc3ccc(C#N)cc3c2n1[C@@H]1CCO[C@H](C)C1` [Compound 260, N-(4,6-dimethyl-5-pyrimidinyl){3-[(2R,4R)-2-methyltetrahydro-2pyran-4-yl]-12-cyano-3,5,8-triazatricyclo[7.4.0.0^2,6]trideca-1,4,6,8,10,12-hexaen-4-yl}acetamide], the IC50 was 30.4 nM in assay [1] and 0.395 nM at LRRK2 wild type enzyme.

Turning to `CO[C@H]1C[C@@H](NC(=O)Cc2nc3cnc4ccc(C#N)cc4c3n2[C@@H]2CCO[C@H](C)C2)C1` [Compound 301, N-[(1s,3s)-3-methoxycyclobutyl]{3-[(2R,4R)-2-methyltetrahydro-2H-pyran-4-yl]-12-cyano-3,5,8-triazatricyclo[7.4.0.0^2,6]trideca-1,4,6,8,10,12-hexaen-4-yl}acetamide], the IC50 in assay [1] is 41.3 nM; against LRRK2 wild type enzyme, 0.701 nM.

For `Cc1nn(C)c(Cl)c1NC(=O)Cc1nc2cnc3ccc(C#N)cc3c2n1[C@@H]1CCO[C@H](C)C1` [Compound 296, N-(5-chloro-1-methyl-3-methyl-4-pyrazolyl){3-[(2R,4R)-2-methyltetrahydro-2H-pyran-4-yl]-12-cyano-3,5,8-triazatricyclo[7.4.0.0^2,6]trideca-1,4,6,8,10,12-hexaen-4-yl}acetamide], the figures for the IC50 (in assay [1]; against LRRK2 wild type enzyme) were 7.61 nM and 0.462 nM, respectively.

As to `Cc1cnn(C)c1NC(=O)Cc1nc2cnc3ccc(C#N)cc3c2n1[C@@H]1CCO[C@H](C)C1` [Compound 350, N-(1-methyl-4-methyl-5-pyrazolyl){3-[(2R,4R)-2-methyltetrahydro-2H-pyran-4-yl]-12-cyano-3,5,8-triazatricyclo[7.4.0.0^2,6]trideca-1(9),2(6),4,7,10,12-hexaen-4-yl}acetamide], the IC50 in assay [1] amounted to 15.4 nM; against LRRK2 wild type enzyme, 0.487 nM.

For `C[C@@H]1C[C@H](n2c(CS(=O)(=O)C3CC3)nc3cnc4ccc(C#N)cc4c32)CCO1` [Compound 74, 2-[(cyclopropanesulfonyl)methyl]-1-[(2R,4R)-2-methyloxan-4-yl]-1H-imidazo[4,5-c]quinoline-8-carbonitrile], the IC50 in assay [1] is 430 nM; on LRRK2 wild type enzyme, 5.92 nM.

Take `C[C@@H]1C[C@H](n2c(CC(=O)NC3COC3)nc3cnc4ccc(Cl)cc4c32)CCO1` [Compound 141, 2-{8-chloro-1-[(2R,4R)-2-methyloxan-4-yl]-1H-imidazo[4,5-c]quinolin-2-yl}-N-(oxetan-3-yl)acetamide]: the IC50 in assay [1] amounted to 18.7 nM; against LRRK2 wild type enzyme it was 0.53 nM.

Consider `C[C@@H]1C[C@H](n2c(CC(=O)NCC(F)(F)CO)nc3cnc4ccc(C#N)cc4c32)CCO1` [Compound 233, N-(2,2-difluoro-3-hydroxypropyl){3-[(2R,4R)-2-methyltetrahydro-2H-pyran-4-yl]-12-cyano-3,5,8-triazatricyclo[7.4.0.0^2,6]trideca-1,4,6,8,10,12-hexaen-4-yl}acetamide], for which the IC50 in assay [1] was 247 nM; against LRRK2 wild type enzyme it was 0.837 nM.

Turning to `C[C@@H]1C[C@H](n2c(C3CC(=O)N(c4ccn(C)n4)C3)nc3cnc4ccc(C#N)cc4c32)CCO1` (stereo partly drawn) [Compound 100, 2-[1-(1-methyl-1H-pyrazol-3-yl)-5-oxopyrrolidin-3-yl]-1-[(2R,4R)-2-methyloxan-4-yl]-1H-imidazo[4,5-c]quinoline-8-carbonitrile], the IC50 worked out at 143 nM in assay [1] and 2.14 nM against LRRK2 wild type enzyme.

On to `C[C@@H]1C[C@H](n2c(CC(=O)Nc3cccnc3C(F)(F)F)nc3cnc4ccc(C#N)cc4c32)CCO1` [Compound 285, N-[2-(trifluoromethyl)-3-pyridyl]{3-[(2R,4R)-2-methyltetrahydro-2H-pyran-4-yl]-12-cyano-3,5,8-triazatricyclo[7.4.0.0^2,6]trideca-1,4,6,8,10,12-hexaen-4-yl}acetamide], for which the concentration for half-maximal inhibition (IC50) was found to be 18.2 nM in assay [1] and 0.68 nM against LRRK2 wild type enzyme.

In the case of `C[C@@H]1C[C@H](n2c(CC(=O)NC3CCC3)nc3cnc4ccc(C#N)cc4c32)CCO1` [Compound 84, 2-{8-cyano-1-[(2R,4R)-2-methyloxan-4-yl]-1H-imidazo[4,5-c]quinolin-2-yl}-N-cyclobutylacetamide], the IC50 worked out at 26.2 nM in assay [1] and 0.436 nM against LRRK2 wild type enzyme.

Take `C[C@@H]1C[C@H](n2c(CNc3nccn3C)nc3cnc4ccc(C#N)cc4c32)CCO1` [Compound 12, 2-{[(1-methyl-1H-imidazol-2-yl)amino]methyl}-1-[(2R,4R)-2-methyloxan-4-yl]-1H-imidazo[4,5-c]quinoline-8-carbonitrile]: the IC50 is above 10000 nM in assay [1] and 9.07 nM against LRRK2 wild type enzyme.

As to `C[C@@H]1C[C@H](n2c(CC(=O)NC3CCc4cccnc43)nc3cnc4ccc(C#N)cc4c32)CCO1` (stereo partly drawn) [Compound 151, 2-{8-cyano-1-[(2R,4R)-2-methyloxan-4-yl]-1H-imidazo[4,5-c]quinolin-2-yl}-N-{5H,6H,7H-cyclopenta[b]pyridin-7-yl}acetamide], the 50% inhibitory concentration (IC50) in assay [1] was determined as 23.3 nM; against LRRK2 wild type enzyme, 0.55 nM.

As to `C[C@@H]1C[C@H](n2c(CC(=O)N[C@H]3C[C@@H]3c3cccnc3)nc3cnc4ccc(C#N)cc4c32)CCO1` [Compound 347, N-[(1S,2R)-2-(3-pyridyl)cyclopropyl]{3-[(2R,4R)-2-methyltetrahydro-2H-pyran-4-yl]-12-cyano-3,5,8-triazatricyclo[7.4.0.0^2,6]trideca-1(9),2(6),4,7,10,12-hexaen-4-yl}acetamide], the IC50 in assay [1] was 144 nM; against LRRK2 wild type enzyme, 1.28 nM.

Take `C[C@@H]1C[C@H](n2c(CC(=O)Nc3cnccn3)nc3cnc4ccc(Cl)cc4c32)CCO1` [Compound 371, N-2-pyrazinyl{3-[(2R,4R)-2-methyltetrahydro-2H-pyran-4-yl]-12-chloro-3,5,8-triazatricyclo[7.4.0.0^2,6]trideca-1(9),2(6),4,7,10,12-hexaen-4-yl}acetamide]: the IC50 in assay [1] was 5 nM; on LRRK2 wild type enzyme, 1.13 nM.

Turning to `C[C@@H]1C[C@H](n2c([C@@H]3CCCN(C(=O)C4CC4)C3)nc3cnc4ccc(C#N)cc4c32)CCO1` [Compound 28, 2-[(3R)-1-cyclopropanecarbonylpiperidin-3-yl]-1-[(2R,4R)-2-methyloxan-4-yl]-1H-imidazo[4,5-c]quinoline-8-carbonitrile], the IC50 in assay [1] worked out at 773 nM; against LRRK2 wild type enzyme, 12.3 nM.

`C[C@@H]1C[C@H](n2c(CC(=O)Nc3cccnc3)nc3cnc4ccc(Cl)cc4c32)CCO1` [Compound 325, N-3-pyridyl{3-[(2R,4R)-2-methyltetrahydro-2H-pyran-4-yl]-12-chloro-3,5,8-triazatricyclo[7.4.0.0^2,6]trideca-1(9),2(6),4,7,10,12-hexaen-4-yl}acetamide]: the IC50 in assay [1] came out at 2.54 nM; against LRRK2 wild type enzyme, 0.44 nM.

As for `C[C@@H]1C[C@H](n2c(C3CCC(=O)N(CC4CC4)C3)nc3cnc4ccc(C#N)cc4c32)CCO1` (stereo partly drawn) [Compound 50, 2-[1-(cyclopropylmethyl)-6-oxopiperidin-3-yl]-1-[(2R,4R)-2-methyloxan-4-yl]-1H-imidazo[4,5-c]quinoline-8-carbonitrile], the IC50 in assay [1] turned out to be 875 nM; at LRRK2 wild type enzyme, 7.5 nM.

Take `C[C@@H]1C[C@H](n2c(CC(=O)Nc3ccnn(C)c3=O)nc3cnc4ccc(C#N)cc4c32)CCO1` [Compound 215, N-(2-methyl-3-oxo-2,3-dihydro-4-pyridazinyl){3-[(2R,4R)-2-methyltetrahydro-2H-pyran-4-yl]-12-cyano-3,5,8-triazatricyclo[7.4.0.0^2,6]trideca-1,4,6,8,10,12-hexaen-4-yl}acetamide]: the concentration for half-maximal inhibition (IC50) in assay [1] is 5.85 nM; against LRRK2 wild type enzyme, 0.438 nM.

Turning to `Cc1cnncc1NC(=O)Cc1nc2cnc3ccc(C#N)cc3c2n1[C@@H]1CCO[C@H](C)C1` [Compound 258, N-(5-methyl-4-pyridazinyl){3-[(2R,4R)-2-methyltetrahydro-2H-pyran-4-yl]-12-cyano-3,5,8-triazatricyclo[7.4.0.0^2,6]trideca-1,4,6,8,10,12-hexaen-4-yl}acetamide], the IC50 in assay [1] stood at 17.2 nM; at LRRK2 wild type enzyme, 0.521 nM.

Consider `C[C@@H]1C[C@H](n2c(CC(=O)NC3CC3(C)C)nc3cnc4ccc(C#N)cc4c32)CCO1` (stereo partly drawn) [Compound 252, N-2,2-dimethylcyclopropyl{3-[(2R,4R)-2-methyltetrahydro-2H-pyran-4-yl]-12-cyano-3,5,8-triazatricyclo[7.4.0.0^2,6]trideca-1,4,6,8,10,12-hexaen-4-yl}acetamide], for which the half-maximal inhibitory concentration (IC50) was 18.1 nM in assay [1] and 0.645 nM against LRRK2 wild type enzyme.

`CC(C)Oc1ccc(NC(=O)Cc2nc3cnc4ccc(C#N)cc4c3n2[C@@H]2CCO[C@H](C)C2)cn1` [Compound 273, N-(6-isopropoxy-3-pyridyl){3-[(2R,4R)-2-methyltetrahydro-2H-pyran-4-yl]-12-cyano-3,5,8-triazatricyclo[7.4.0.0^2,6]trideca-1,4,6,8,10,12-hexaen-4-yl}acetamide]: the IC50 in assay [1] was determined as 5.59 nM; against LRRK2 wild type enzyme it was 0.478 nM.

`C[C@@H]1C[C@H](n2c(CC(=O)Nc3cnn(C)c(=O)c3)nc3cnc4ccc(Cl)cc4c32)CCO1` [Compound 206, N-(1-methyl-6-oxo-1,6-dihydro-4-pyridazinyl){3-[(2R,4R)-2-methyltetrahydro-2H-pyran-4-yl]-12-chloro-3,5,8-triazatricyclo[7.4.0.0^2,6]trideca-1,4,6,8,10,12-hexaen-4-yl}acetamide]: the IC50 in assay [1] amounted to 8.37 nM; at LRRK2 wild type enzyme, 0.48 nM.

The record behind these values is patent US20250270209A1 (INTERLINE THERAPEUTICS, INC., priority 2022, published 2025).
